Laboratory results reported in ChEMBL document CHEMBL1221332, “[3-azabicyclo[3.1.0]hex-1-yl]phenyl-benzenesulfonamides as selective dopamine D3 antagonists” (Bioorg Med Chem Lett, 2010).
pIC50, pKi: −log10 of the molar value.

What was measured:
[1] = biological target: D(2) dopamine receptor (Homo sapiens, UniProt P14416)
Description: Antagonist activity at dopamine D2 receptor by GTPgammaS binding assay

[2] = biological target: D(3) dopamine receptor (Homo sapiens, UniProt P35462); test: Antagonist activity at dopamine D3 receptor by GTPgammaS binding assay; type: functional
[3] = biological target: Voltage-gated inwardly rectifying potassium channel KCNH2 (Homo sapiens, UniProt Q12809)
[4] = Ratio of drug level in brain to plasma in rat; type: ADME

D(2) dopamine receptor, sequence (P14416 whole entry): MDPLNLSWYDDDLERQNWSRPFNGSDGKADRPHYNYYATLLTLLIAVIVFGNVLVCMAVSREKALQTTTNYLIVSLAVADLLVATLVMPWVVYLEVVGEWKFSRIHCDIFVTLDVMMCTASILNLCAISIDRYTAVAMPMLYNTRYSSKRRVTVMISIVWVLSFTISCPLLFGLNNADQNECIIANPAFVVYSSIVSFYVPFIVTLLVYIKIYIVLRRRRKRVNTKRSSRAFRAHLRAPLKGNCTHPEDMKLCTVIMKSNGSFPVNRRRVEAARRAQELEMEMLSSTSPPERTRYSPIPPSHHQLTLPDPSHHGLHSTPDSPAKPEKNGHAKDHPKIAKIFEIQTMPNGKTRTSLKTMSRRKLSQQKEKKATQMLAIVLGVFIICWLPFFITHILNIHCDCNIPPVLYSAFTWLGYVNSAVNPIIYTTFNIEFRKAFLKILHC
Voltage-gated inwardly rectifying potassium channel KCNH2, sequence (Q12809 whole entry): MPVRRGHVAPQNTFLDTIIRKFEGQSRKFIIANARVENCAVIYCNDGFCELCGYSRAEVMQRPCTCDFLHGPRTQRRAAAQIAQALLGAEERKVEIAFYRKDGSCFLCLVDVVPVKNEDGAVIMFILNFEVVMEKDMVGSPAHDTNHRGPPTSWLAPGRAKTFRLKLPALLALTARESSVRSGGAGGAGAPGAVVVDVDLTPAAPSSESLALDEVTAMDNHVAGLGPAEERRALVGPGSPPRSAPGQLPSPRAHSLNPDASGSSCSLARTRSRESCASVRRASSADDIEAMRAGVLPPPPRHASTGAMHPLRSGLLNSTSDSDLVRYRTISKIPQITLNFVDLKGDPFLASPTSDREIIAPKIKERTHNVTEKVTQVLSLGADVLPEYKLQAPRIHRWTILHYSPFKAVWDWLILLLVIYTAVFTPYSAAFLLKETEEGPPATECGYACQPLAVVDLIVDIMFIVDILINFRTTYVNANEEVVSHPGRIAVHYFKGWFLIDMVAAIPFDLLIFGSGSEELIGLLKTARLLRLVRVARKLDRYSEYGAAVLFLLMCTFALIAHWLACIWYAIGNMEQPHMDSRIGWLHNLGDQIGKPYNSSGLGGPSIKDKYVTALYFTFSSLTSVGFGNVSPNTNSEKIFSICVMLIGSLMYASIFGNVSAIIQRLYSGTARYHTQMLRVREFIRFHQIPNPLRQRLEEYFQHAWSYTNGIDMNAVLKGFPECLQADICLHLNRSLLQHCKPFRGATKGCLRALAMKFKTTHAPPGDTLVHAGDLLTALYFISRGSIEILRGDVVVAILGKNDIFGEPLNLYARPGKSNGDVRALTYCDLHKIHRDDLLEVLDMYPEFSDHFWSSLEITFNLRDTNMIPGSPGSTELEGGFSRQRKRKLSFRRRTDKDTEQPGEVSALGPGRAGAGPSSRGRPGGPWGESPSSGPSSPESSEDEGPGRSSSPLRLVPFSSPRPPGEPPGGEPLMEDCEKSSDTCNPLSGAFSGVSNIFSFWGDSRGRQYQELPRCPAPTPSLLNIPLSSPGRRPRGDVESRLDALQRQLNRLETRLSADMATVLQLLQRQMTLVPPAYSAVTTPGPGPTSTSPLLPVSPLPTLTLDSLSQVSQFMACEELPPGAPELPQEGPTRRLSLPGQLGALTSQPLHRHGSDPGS
D(3) dopamine receptor, sequence (P35462 whole entry): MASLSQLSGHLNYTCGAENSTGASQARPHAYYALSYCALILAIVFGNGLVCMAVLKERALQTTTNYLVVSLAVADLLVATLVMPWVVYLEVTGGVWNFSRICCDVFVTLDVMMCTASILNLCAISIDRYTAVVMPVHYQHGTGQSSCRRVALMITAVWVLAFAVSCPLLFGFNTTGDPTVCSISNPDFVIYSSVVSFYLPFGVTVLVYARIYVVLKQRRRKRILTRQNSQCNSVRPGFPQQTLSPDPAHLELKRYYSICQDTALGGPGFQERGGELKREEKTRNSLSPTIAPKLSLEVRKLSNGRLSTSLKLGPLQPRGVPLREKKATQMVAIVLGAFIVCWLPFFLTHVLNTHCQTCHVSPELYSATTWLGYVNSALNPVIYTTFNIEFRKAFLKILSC

Compound | pKi [1] | pKi [2] | Kp [4] | pIC50 [3]
COc1cc([C@]23CNC[C@H]2C3)ccc1NS(=O)(=O)c1ccc(C(C)C)cc1 | 7.30 | – | – | –
CCN1C[C@H]2C[C@@]2(c2ccc(NS(=O)(=O)c3ccc(C(C)C)cc3)cc2)C1 | 7.00 | 8.10 | – | 5.90
CC(C)c1ccc(S(=O)(=O)Nc2ccc(C34CNCC3C4)cc2)cc1 (single isomer, unassigned; enantiomer 2) | – | 6.70 | – | 5.80
O=S(=O)(Nc1ccc([C@]23CNC[C@H]2C3)cc1)c1ccc(C(F)(F)F)cc1 | < 5.50 | 6.60 | – | 6.10
CC(C)c1ccc(CS(=O)(=O)c2ccc([C@]34CNC[C@H]3C4)cc2)cc1 | < 5.50 | 7.60 | – | 5.50
O=S(=O)(Nc1ccc([C@]23CNC[C@H]2C3)cc1)c1ccc(OC(F)(F)F)cc1 | 6.00 | 6.20 | – | 5.00
CN(c1ccc([C@]23CNC[C@H]2C3)cc1)S(=O)(=O)c1ccccc1 | 6.30 | 7.10 | – | < 4.20
CC(C)c1ccc(S(=O)(=O)Cc2ccc([C@]34CNC[C@H]3C4)cc2)cc1 | 6.50 | 7.60 | – | 5.90

The remaining compounds from weak to strong by pKi [2], led by results:

pKi [1] | pKi [2] | Kp [4] | Compound | pIC50 [3]
7.20 | 8.20 | 7.3 | CC(C)c1ccc(S(=O)(=O)Nc2ccc([C@@]34C[C@@H]3CN(C)C4)cc2)cc1 | 5.80
7.30 | 8.20 | – | CCC(C)(C)c1ccc(S(=O)(=O)Nc2ccc([C@]34CNC[C@H]3C4)cc2)cc1 | –
6.90 | 8.30 | – | CCCCc1ccc(S(=O)(=O)Nc2ccc([C@]34CNC[C@H]3C4)cc2)cc1 | –
– | 8.40 | – | CC(C)c1ccc(S(=O)(=O)Nc2ccc(C34CNCC3C4)cc2)cc1 (single isomer, unassigned; enantiomer 1) | 5.30
– | 8.60 | – | CC(C)c1ccc(S(=O)(=O)Nc2ccc([C@]34CNC[C@H]3C4)cc2)cc1 (racemic) | 6.00
7.20 | 8.60 | – | C=CCN1C[C@H]2C[C@@]2(c2ccc(NS(=O)(=O)c3ccc(C(C)C)cc3)cc2)C1 | 7.00
